Laboratory results: patent US11395847B2, “Acylated GLP-1/GLP-2 dual agonists” (Zealand Pharma A/S, priority 2016, dated 2022)
Where a SMILES comes first, the peptide text is derived from it. [ ]: non-standard residue; d: D form. The star is where a group is joined. Stearoyl = CCCCCCCCCCCCCCCCCC(=O)*; Aib = CC(C)(N)C(=O)O

Biological target: T1, human GLP-1 receptor (Homo sapiens, UniProt P43220)
T1 construct: expressed in transfected cells
Experiment: GLP-1 receptor potency assay (cAMP ALPHASCREEN, HEK293 cells stably expressing GLP-1 R)
Type: cell-based
Conditions: cAMP response, HEK293 cells expressing human GLP-1 R
Description: One useful in vitro assay for measuring GLP-1 and GLP-2 receptor activity is quantitation of cAMP, i.e. 3′-5′-cyclic adenosine monophosphate, which is a second messenger essential in many biological processes, and one of the most ubiquitous mechanisms for regulating cellular functions.
The cDNA encoding the human glucagon-like peptide 1 receptor (GLP-1 R) (primary accession number P43220) was cloned from the cDNA BC112126 (MGC:138331/IMAGE:8327594). The DNA encoding the GLP-1-R was amplified by PCR using primers encoding terminal restriction sites for subcloning. The 5′-end primers additionally encoded a near Kozak consensus sequence to ensure efficient translation. […] The PCR products encoding the GLP-1-R were subcloned into a mammalian expression vector containing a neomycin (G418) resistance marker. The mammalian expression vectors encoding the GLP-1-R were transfected into HEK293 cells by a standard calcium phosphate transfection method. 48 hours post-transfection, cells were seeded for limited dilution cloning and selected with 1 mg/ml G418 in the culture medium. Following 3 weeks in G418 selection clones were picked and tested in a functional GLP-1 receptor potency assay as described below.
The cAMP ALPHASCREEN® assay from Perkin Elmer was used to quantitate the cAMP response to activation of the GLP1 and GLP2 receptor, respectively. […] Data from test compounds eliciting an increase in the intracellular level of cAMP were normalized relative to the positive and negative control (vehicle) to calculate the EC50 and maximal response from the concentration response curve.

T1 sequence (P43220 24-463): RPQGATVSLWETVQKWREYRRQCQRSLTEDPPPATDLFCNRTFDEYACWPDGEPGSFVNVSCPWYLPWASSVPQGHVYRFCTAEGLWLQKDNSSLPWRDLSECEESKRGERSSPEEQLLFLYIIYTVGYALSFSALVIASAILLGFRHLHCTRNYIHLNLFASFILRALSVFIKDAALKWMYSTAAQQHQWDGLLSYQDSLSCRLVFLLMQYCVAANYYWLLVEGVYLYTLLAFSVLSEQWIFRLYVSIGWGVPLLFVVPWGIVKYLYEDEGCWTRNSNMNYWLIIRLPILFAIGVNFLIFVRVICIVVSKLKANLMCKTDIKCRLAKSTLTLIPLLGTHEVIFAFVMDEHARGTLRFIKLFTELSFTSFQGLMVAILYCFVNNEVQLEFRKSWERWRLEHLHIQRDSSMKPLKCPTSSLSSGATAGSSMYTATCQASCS

CC[C@H](C)[C@H](NC(=O)[C@H](CC(C)C)NC(=O)[C@H](Cc1c[nH]c2ccccc12)NC(=O)[C@H](C)NC(=O)[C@@H](NC(=O)[C@H](Cc1ccccc1)NC(=O)[C@H](CC(=O)O)NC(=O)[C@H](CCCNC(=N)N)NC(=O)[C@H](C)NC(=O)[C@H](C)NC(=O)[C@H](CCC(N)=O)NC(=O)[C@H](CCCCNC(=O)CC[C@H](NC(=O)CCCCCCCCCCCCCCCCC(=O)O)C(=O)O)NC(=O)[C@H](CC(=O)O)NC(=O)[C@H](CC(C)C)NC(=O)[C@@H](NC(=O)[C@@H](NC(=O)[C@H](C)NC(=O)[C@H](CC(C)C)NC(=O)[C@H](CCC(=O)O)NC(=O)[C@H](CO)NC(=O)[C@H](CO)NC(=O)[C@H](Cc1ccccc1)NC(=O)[C@@H](NC(=O)CNC(=O)[C@H](CCC(=O)O)NC(=O)C(C)(C)NC(=O)[C@@H](N)Cc1c[nH]cn1)[C@@H](C)O)[C@@H](C)O)[C@@H](C)CC)[C@@H](C)CC)C(=O)N[C@@H](C)C(=O)N[C@@H](Cc1c[nH]cn1)C(=O)N[C@@H](CCCCN)C(=O)N[C@H](C(=O)N[C@H](C(=O)N[C@@H](CC(=O)O)C(=O)O)[C@@H](C)O)[C@@H](C)CC [Compound 21] (HELM PEPTIDE1{H.[Aib].E.G.T.F.S.S.E.L.A.T.I.L.D.K.Q.A.A.R.D.F.I.A.W.L.I.A.H.K.I.T.D}|PEPTIDE2{[O=C(O)CCCCCCCCCCCCCCCCC(=O)[*:2]].[gGlu]}$PEPTIDE1,PEPTIDE2,16:R3-2:R2$$$V2.0)
EC50: 1.8 nM

CCCCCCCCCCCCCCCCCC(=O)NCCCC[C@H](NC(=O)[C@H](CC(=O)O)NC(=O)[C@H](CC(C)C)NC(=O)[C@@H](NC(=O)[C@@H](NC(=O)[C@H](C)NC(=O)[C@H](CC(C)C)NC(=O)[C@H](CCC(=O)O)NC(=O)[C@H](CO)NC(=O)[C@@H](NC(=O)[C@H](Cc1ccccc1)NC(=O)[C@H](CO)NC(=O)CNC(=O)[C@H](CCC(=O)O)NC(=O)C(C)(C)NC(=O)[C@@H](N)Cc1c[nH]cn1)[C@@H](C)O)[C@@H](C)O)[C@@H](C)CC)C(=O)N[C@@H](CCC(N)=O)C(=O)N[C@@H](C)C(=O)N[C@@H](C)C(=O)N[C@@H](CCCNC(=N)N)C(=O)N[C@@H](CC(=O)O)C(=O)N[C@@H](Cc1ccccc1)C(=O)N[C@H](C(=O)N[C@@H](C)C(=O)N[C@@H](Cc1c[nH]c2ccccc12)C(=O)N[C@@H](CC(C)C)C(=O)N[C@H](C(=O)N[C@@H](CCC(N)=O)C(=O)N[C@@H](Cc1ccc(O)cc1)C(=O)N[C@@H](CCCCN)C(=O)N[C@H](C(=O)N[C@H](C(=O)N[C@@H](CC(=O)O)C(=O)O)[C@@H](C)O)[C@@H](C)CC)[C@@H](C)CC)[C@@H](C)CC [Compound 36] (H-H[Aib]EGSFTSELATILDK(Stearoyl)QAARDFIAWLIQYKITD-OH)
EC50: 0.32 nM
